This is an account of results in US7655756B2 (Johnson & Johnson Pharmaceutical Research & Development, LLC, priority 2005, dated 2010).

The structures appear in SMILES notation.

Assay type in all cases: binding
One experiment concerns the target T1, ERRγ (Homo sapiens, UniProt P62508).
T1 construct: 6His; made in house; host or cells: E. coli BL21(DE3)
T1 sequence (P62508 229-458): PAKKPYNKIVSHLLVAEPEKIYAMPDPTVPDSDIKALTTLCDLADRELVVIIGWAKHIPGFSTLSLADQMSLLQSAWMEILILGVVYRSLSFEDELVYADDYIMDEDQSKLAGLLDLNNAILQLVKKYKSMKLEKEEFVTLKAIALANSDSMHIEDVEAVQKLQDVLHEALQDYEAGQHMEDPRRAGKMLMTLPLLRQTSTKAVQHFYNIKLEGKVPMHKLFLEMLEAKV
Description: Isothermal titration calorimetry. The settings on record: isothermal titration calorimetry. As for the experimental part:
The heat of interaction of the ligands with ERRγ molecules was measured by using the Omega titration calorimeter from Microcal Inc. In a typical titration, 1.4 mL of a 20 μM protein solution is titrated with a ligand solution of ˜0.4 mM concentration using a 100 μL syringe by ˜20 injections of 5-6 μL each. This syringe is also used to mix the reactants completely in the sample cell by rotating it at 400 rpm. For each injection, the area under the resulting peak is proportional to the heat of interaction, Q. Once this heat is corrected for the titrant dilution and normalized by the titrant solution concentration it becomes equal to the binding enthalpy, ΔHb, under nonsaturating conditions. The precision of the heat of each injection is about 0.5 μcal. One method of determining ΔHb is to average several intermediate peaks from the different sites. In addition to the binding enthalpies, one can obtain binding affinities, and overall stoichiometries of the complexes. The experimental calorimetric binding isotherm is the dependence of the total heat, Qr, (or dQrldX T) on the total concentration of ligand added, Xr. The above three parameters for each type of site are determined iteratively using the Marquardt algorithms as described previously.
In general terms: ITC needs no label: the signal is the heat of the interaction.

A further experiment addresses T2, ERα (Homo sapiens, UniProt P03372).
T2 sequence (P03372 1-595): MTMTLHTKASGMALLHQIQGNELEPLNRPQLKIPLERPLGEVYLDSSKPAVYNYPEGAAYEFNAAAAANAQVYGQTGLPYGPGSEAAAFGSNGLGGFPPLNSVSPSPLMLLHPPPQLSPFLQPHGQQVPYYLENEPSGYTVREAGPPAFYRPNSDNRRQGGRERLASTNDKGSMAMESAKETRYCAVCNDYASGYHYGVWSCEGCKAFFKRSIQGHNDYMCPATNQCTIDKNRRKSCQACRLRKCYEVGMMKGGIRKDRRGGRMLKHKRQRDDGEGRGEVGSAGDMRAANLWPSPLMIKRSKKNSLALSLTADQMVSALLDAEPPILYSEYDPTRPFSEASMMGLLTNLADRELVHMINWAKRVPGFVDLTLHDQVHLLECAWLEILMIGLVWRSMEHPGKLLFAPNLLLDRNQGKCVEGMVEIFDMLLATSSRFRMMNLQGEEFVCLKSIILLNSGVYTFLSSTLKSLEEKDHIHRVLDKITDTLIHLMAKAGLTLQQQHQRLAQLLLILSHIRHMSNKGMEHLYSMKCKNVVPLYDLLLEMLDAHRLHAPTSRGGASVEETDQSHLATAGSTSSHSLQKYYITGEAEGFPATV
Nature of the experiment: ThermoFluor thermal shift assay, ERα. (Differential scanning fluorimetry follows unfolding on heating by fluorescence.)

In the next experiment the target is T3, ERRα (Homo sapiens, UniProt P11474).
T3 sequence (P11474 193-421 limits assumed): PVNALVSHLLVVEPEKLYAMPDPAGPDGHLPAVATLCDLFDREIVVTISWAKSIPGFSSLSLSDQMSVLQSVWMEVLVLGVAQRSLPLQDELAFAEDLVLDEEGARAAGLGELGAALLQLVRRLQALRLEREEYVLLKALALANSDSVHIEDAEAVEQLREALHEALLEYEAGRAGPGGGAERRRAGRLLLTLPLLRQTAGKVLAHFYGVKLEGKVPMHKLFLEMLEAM
Description: ThermoFluor thermal shift assay, ERRα. The note with it: 100 μM test compound; 0.1 mg/mL protein, 25 mM HEPES pH 8.0, 25 μM ANS, 2% DMSO; Tm free protein 54.4 °C; read-out: ΔTm, thermal stabilization of ERRα.

Take `Cc1cc(O)ccc1Cl` [ClCH3Ph, 4-chloro, 3-methyl phenol]: the “Binding enthalpy ΔHb” value at ERRγ is approximately -21 kcal/mol. Moreover, the Kd on ERα (calculated at reference temperature 25 °C from ΔTm of Table II, ΔHu 112 kcal/mol, read-out: Estimated dissociation constant, ERα) is 37.3 µM. Also, the ΔTm (commonly the shift of the melting midpoint relative to a reference) at 100 µM was found to be 0.4 °C at ERα (pH 8, read-out: ΔTm, thermal stabilization of ERα) and 0.1 °C at ERRα.
